According to patent publication US9073941B2, “Compounds and methods for treating tuberculosis infection” (Academia Sinica, priority 2010, dated 2015):
≈ marks a conversion by molar mass, not a printed value. Read-outs that look alike come from different tables or passages of the source.

What was measured:
[1] = biological target: lipoamide dehydrogenase (Lpd) (Mycobacterium tuberculosis (strain ATCC 25618 / H37Rv), UniProt P9WHH9); assay: Lipoamide Dehydrogenase (Lpd) Inhibition Assay; type: biochemical
Mtb PDH (Lpd+DlaT+AceE) = Mtb PDH (Lpd+DlaT+AceE) (Mycobacterium tuberculosis (strain ATCC 25618 / H37Rv), UniProt P9WHH9); assay: PDH Inhibition Activity; type: biochemical
[2] = test system: Mycobacterium tuberculosis strains H37Rv; assay: In Vitro Antitubercular H37Rv MIC Assay (resazurin); type: cell-based; conditions: 168 h
[3] = concentration required for 50% inhibition of LPD activity, DTNB detection, OD405 nm
[4] = concentration required for 50% inhibition of PDH activity, fluorescence ex 360 nm / em 460 nm, read-out: PDH IC50
[5] = growth of Mycobacterium tuberculosis H37Rv, 7H9 medium, 7 days, tested 8-0.25 μg/mL
[6] = Mycobacterium tuberculosis, H37RV

CCCCn1c(NC(=O)c2ccc(Br)o2)c(C#N)c2nc3ccccc3nc21 [Compound 1001]
IC50 [1, 3]: 1080 ± 240 nM
IC50 (Mtb PDH (Lpd+DlaT+AceE); [4]): 954 nM
MIC [2, 5]: > 8 µg/mL

c1ccc2c(c1)ccn1c3ccccc3cc21 [Compound 401]
IC50 (Mtb PDH (Lpd+DlaT+AceE); [4]): 140 nM
MIC [2, 5]: > 8 µg/mL

COc1ccc(-c2nc3c(=O)n(C)c(=O)nc-3n(C)n2)cc1OC [Compound 606]
IC50 [1, 3]: 960 ± 70 nM
IC50 (Mtb PDH (Lpd+DlaT+AceE); [4]): 1440 nM
MIC [2, 5]: > 8 µg/mL

CC(=O)C(C(C)=O)C1=CC(=O)C(=O)c2ccccc21 [Compound 906]
IC50 [1, 3]: 2150 ± 430 nM
IC50 (Mtb PDH (Lpd+DlaT+AceE); [4]): > 5000 nM

O=C1C=C(NCc2ccccc2)c2ccccc2C1=O [Compound 901]
IC50 [1, 3]: 100 nM
IC50 (Mtb PDH (Lpd+DlaT+AceE); [4]): 4280 nM
MIC [2, 5]: 8 µg/mL (≈ 30.4 µM)

Cn1nc(-c2ccc([N+](=O)[O-])cc2)nc2c(=O)n(C)c(=O)nc1-2 [Compound 614]
IC50 [1, 3]: < 40 nM
IC50 (Mtb PDH (Lpd+DlaT+AceE); [4]): < 40 nM

O=C1C(=O)c2nn(-c3ccccc3)nc2-c2ccccc21 [Compound 905]
IC50 [1]: < 40 nM
IC50 (Mtb PDH (Lpd+DlaT+AceE)): < 40 nM
MIC [2, 5]: 8 µg/mL (≈ 29.1 µM)

CCn1nc(-c2ccccc2Cl)nc2c(=O)n(C)c(=O)nc1-2 [Compound 615]
IC50 [1, 3]: < 40 nM
IC50 (Mtb PDH (Lpd+DlaT+AceE); [4]): < 40 nM

Cn1c(N)c(C(=O)NCc2ccccc2)c2nc3ccccc3nc21 [Compound 1013]
IC50 [1, 3]: > 4000 nM
IC50 (Mtb PDH (Lpd+DlaT+AceE); [4]): > 5000 nM

O=C1c2ccccc2C(O)(O)[C@@]1(O)[C@]1(O)C(=O)c2ccccc2C1(O)O [Compound 101]
IC50 (Mtb PDH (Lpd+DlaT+AceE); [4]): 1930 nM
MIC [2, 6]: > 8 µg/mL

CCOC(=O)/C=C\CBr [(XVI)]
IC50 [1, 3]: 2920 ± 880 nM
IC50 (Mtb PDH (Lpd+DlaT+AceE); [4]): 1650 nM
MIC [2, 5]: ≤ 0.25 µg/mL

Cc1ccc(CNC(=O)C2CCN(S(=O)(=O)c3cn(C(C)C)cn3)CC2)cc1 [Compound 501]
IC50 [1, 3]: 3050 ± 1050 nM
IC50 (Mtb PDH (Lpd+DlaT+AceE); [4]): 3130 nM
MIC [2, 5]: > 8 µg/mL

O=C(OC[C@H]1O[C@H](OC(=O)c2cc(O)c(O)c(OC(=O)c3cc(O)c(O)c(O)c3)c2)[C@H](OC(=O)c2cc(O)c(O)c(OC(=O)c3cc(O)c(O)c(O)c3)c2)[C@@H](OC(=O)c2cc(O)c(O)c(OC(=O)c3cc(O)c(O)c(O)c3)c2)[C@@H]1OC(=O)c1cc(O)c(O)c(OC(=O)c2cc(O)c(O)c(O)c2)c1)c1cc(O)c(O)c(OC(=O)c2cc(O)c(O)c(O)c2)c1 [Compound 302]
IC50 (Mtb PDH (Lpd+DlaT+AceE); [4]): 450 nM
MIC [2, 5]: > 8 µg/mL

CCn1nc(-c2ccc([N+](=O)[O-])cc2)nc2c(=O)n(C)c(=O)nc1-2 [Compound 620]
IC50 [1, 3]: < 40 nM
IC50 (Mtb PDH (Lpd+DlaT+AceE); [4]): < 40 nM

Cn1nc(-c2ccc(Cl)cc2)nc2c(=O)n(C)c(=O)nc1-2 [Compound 603]
IC50 [1]: 100 ± 10 nM
IC50 (Mtb PDH (Lpd+DlaT+AceE)): < 40 nM
MIC [2, 5]: > 8 µg/mL

Cn1nc(-c2ccccc2)nc2c(=O)n(C)c(=O)nc1-2 [Compound 601]
IC50 [1, 3]: < 40 nM
IC50 (Mtb PDH (Lpd+DlaT+AceE); [4]): < 40 nM
MIC [2, 6]: > 8 µg/mL

COc1ccc(NC(=O)CN(C)S(=O)(=O)c2cc(Br)cnc2N)cc1 [Compound 500]
MIC [2, 5]: > 8 µg/mL

CCn1nc(-c2ccc(C(=O)OC)cc2)nc2c(=O)n(C)c(=O)nc1-2 [Compound 621]
IC50 [1, 3]: < 40 nM
IC50 (Mtb PDH (Lpd+DlaT+AceE); [4]): < 40 nM

Nc1c(O)ccc2nsnc12 [Compound 203]
IC50 (Mtb PDH (Lpd+DlaT+AceE); [4]): 3670 nM
MIC [2, 5]: > 8 µg/mL

CCCCCn1c(NC(=O)c2ccc(Br)o2)c(C#N)c2nc3ccccc3nc21 [Compound 1007]
IC50 [1]: 1360 ± 160 nM
IC50 (Mtb PDH (Lpd+DlaT+AceE)): > 5000 nM

Cn1nc(-c2ccc(F)cc2)nc2c(=O)n(C)c(=O)nc1-2 [Compound 616]
IC50 [1]: < 40 nM
IC50 (Mtb PDH (Lpd+DlaT+AceE)): < 40 nM

Cn1nc(-c2ccc(C(F)(F)F)cc2)nc2c(=O)n(C)c(=O)nc1-2 [Compound 619]
IC50 [1, 3]: < 40 nM
IC50 (Mtb PDH (Lpd+DlaT+AceE); [4]): < 40 nM

CCn1nc(-c2ccc(OC)cc2)nc2c(=O)n(C)c(=O)nc1-2 [Compound 607]
IC50 [1, 3]: 60 ± 10 nM
IC50 (Mtb PDH (Lpd+DlaT+AceE); [4]): < 40 nM
MIC [2, 5]: 8 µg/mL (≈ 25.5 µM)

CC1(C)C(=O)N=C2c3ccccc3C(=O)C(=O)C21 (centres unmarked) [Compound 903]
IC50 [1, 3]: 860 ± 80 nM
IC50 (Mtb PDH (Lpd+DlaT+AceE); [4]): 1170 nM
MIC [2, 5]: > 8 µg/mL

CCC(C)n1c(NC(=O)c2ccc(Br)o2)c(C#N)c2nc3ccccc3nc21 (centres unmarked) [Compound 1009]
IC50 [1, 3]: 1650 ± 230 nM
IC50 (Mtb PDH (Lpd+DlaT+AceE); [4]): > 5000 nM

Nc1ccc2c(c1)C(=O)C(=O)c1ccccc1-2 [Compound 902]
IC50 [1, 3]: 670 ± 70 nM
IC50 (Mtb PDH (Lpd+DlaT+AceE); [4]): 788 nM
MIC [2, 5]: > 8 µg/mL

COc1ccc(CCI)cc1 [Compound 303]
IC50 (Mtb PDH (Lpd+DlaT+AceE); [4]): < 40 nM
MIC [2, 5]: 2 µg/mL (≈ 7.63 µM)

CCn1nc(-c2cccs2)nc2c(=O)n(C)c(=O)nc1-2 [Compound 610]
IC50 [1, 3]: < 40 nM
IC50 (Mtb PDH (Lpd+DlaT+AceE); [4]): < 40 nM
MIC [2, 6]: > 8 µg/mL

CCCc1nc2c(=O)n(C)c(=O)nc-2n(C)n1 [Compound 617]
IC50 [1, 3]: < 40 nM
IC50 (Mtb PDH (Lpd+DlaT+AceE); [4]): < 40 nM

CN1N=C(c2ccccc2)Nc2c1nc(O)n(C)c2=O [Compound 701]
IC50 (Mtb PDH (Lpd+DlaT+AceE); [4]): < 40 nM
MIC [2, 6]: > 8 µg/mL

CCn1nc(-c2ccccc2)nc2c(=O)n(C)c(=O)nc1-2 [Compound 602]
IC50 [1]: 230 ± 20 nM
IC50 (Mtb PDH (Lpd+DlaT+AceE)): < 40 nM
MIC [2, 6]: > 8 µg/mL

CCCCn1c(NS(=O)(=O)c2ccc(C)cc2)c(C#N)c2nc3ccccc3nc21 [Compound 1005]
IC50 [1, 3]: 900 ± 130 nM
IC50 (Mtb PDH (Lpd+DlaT+AceE); [4]): > 5000 nM

CCCCn1c(NC(=O)c2cccs2)c(C#N)c2nc3ccccc3nc21 [Compound 1006]
IC50 [1, 3]: 860 ± 160 nM
IC50 (Mtb PDH (Lpd+DlaT+AceE); [4]): > 5000 nM

O=C1C(=O)c2cc([N+](=O)[O-])ccc2-c2ccccc21 [Compound 904]
IC50 [1, 3]: 640 ± 50 nM
IC50 (Mtb PDH (Lpd+DlaT+AceE); [4]): 691 nM
MIC [2, 5]: > 8 µg/mL

CCn1nc(-c2cccnc2)nc2c(=O)n(C)c(=O)nc1-2 [Compound 608]
IC50 [1]: 190 ± 30 nM
IC50 (Mtb PDH (Lpd+DlaT+AceE)): < 40 nM
MIC [2, 6]: > 8 µg/mL

CCn1nc(/C=C/c2ccccc2)nc2c(=O)n(C)c(=O)nc1-2 [Compound 609]
IC50 [1, 3]: < 40 nM
IC50 (Mtb PDH (Lpd+DlaT+AceE); [4]): < 40 nM
MIC [2, 6]: > 8 µg/mL

Cc1nc2c(=O)n(C)c(=O)nc-2n(C)n1 [Compound 611]
IC50 [1, 3]: 80 ± 10 nM
IC50 (Mtb PDH (Lpd+DlaT+AceE); [4]): < 40 nM
MIC [2, 6]: 4 µg/mL (≈ 19.3 µM)

C=CCn1c(NS(=O)(=O)c2ccccc2)c(C#N)c2nc3ccccc3nc21 [Compound 1002]
IC50 [1, 3]: 980 ± 150 nM
IC50 (Mtb PDH (Lpd+DlaT+AceE); [4]): 3320 nM
MIC [2, 5]: > 8 µg/mL

C=CCOCc1ccccc1 [Compound 301]
IC50 (Mtb PDH (Lpd+DlaT+AceE); [4]): 760 nM
MIC [2, 5]: 8 µg/mL (≈ 54 µM)

O=C1c2ccccc2-c2nc3nonc3nc21 [Compound 103]
IC50 (Mtb PDH (Lpd+DlaT+AceE); [4]): < 40 nM
MIC [2, 5]: ≤ 0.25 µg/mL

CCC(C)n1c(NC(=O)c2ccccc2)c(C#N)c2nc3ccccc3nc21 (centres unmarked) [Compound 1004]
IC50 [1, 3]: 870 ± 100 nM
IC50 (Mtb PDH (Lpd+DlaT+AceE); [4]): > 5000 nM

CCOC(=O)c1c(NS(=O)(=O)c2ccccc2)n(CCCOC)c2nc3ccccc3nc12 [Compound 1011]
IC50 [1, 3]: 1310 ± 160 nM
IC50 (Mtb PDH (Lpd+DlaT+AceE); [4]): > 5000 nM

N#Cc1c(NC(=O)c2ccc(Cl)c([N+](=O)[O-])c2)n(Cc2ccccc2)c2nc3ccccc3nc12 [Compound 1010]
IC50 [1]: > 4000 nM
IC50 (Mtb PDH (Lpd+DlaT+AceE)): > 5000 nM

CCOc1ccccc1/C=C1\Cc2ccccc2C1=O [Compound 102]
IC50 (Mtb PDH (Lpd+DlaT+AceE); [4]): 1130 nM
MIC [2, 5]: > 8 µg/mL

COCCn1c(NC(=O)c2cccc([N+](=O)[O-])c2)c(C#N)c2nc3ccccc3nc21 [Compound 1008]
IC50 [1, 3]: 1050 ± 140 nM
IC50 (Mtb PDH (Lpd+DlaT+AceE); [4]): > 5000 nM

CCn1nc(-c2ccccc2C)nc2c(=O)n(C)c(=O)nc1-2 [Compound 613]
IC50 [1, 3]: < 40 nM
IC50 (Mtb PDH (Lpd+DlaT+AceE); [4]): < 40 nM

Nc1c(Br)cc(Br)c2nsnc12 [Compound 202]
IC50 (Mtb PDH (Lpd+DlaT+AceE); [4]): 1690 nM

Cc1ccc(-c2nc3c(=O)n(C)c(=O)nc-3n(C)n2)cc1 [Compound 618]
IC50 [1]: < 40 nM
IC50 (Mtb PDH (Lpd+DlaT+AceE)): < 40 nM

CCCCn1c(NC(=O)c2ccccc2)c(C#N)c2nc3ccccc3nc21 [Compound 1003]
IC50 [1, 3]: 520 ± 70 nM
IC50 (Mtb PDH (Lpd+DlaT+AceE); [4]): > 5000 nM

COCCN(C(=O)c1nsc(Cl)c1Cl)c1nc2c(s1)CCc1c-2cnn1C [Compound 1104]
IC50 [1, 3]: 2240 ± 260 nM

CC(C)Oc1ccc(CNC(=O)C2CCN(S(=O)(=O)c3cn(C(C)C)cn3)CC2)cc1 [Compound 560]
IC50 [1, 3]: 3860 ± 900 nM

CCn1cnc(S(=O)(=O)N2CCC(C(=O)NCCc3nc4cc(C)ccc4[nH]3)CC2)c1 [Compound 566]
IC50 [1, 3]: 3910 ± 790 nM

CC(C)n1cnc(S(=O)(=O)N2CCC(C(=O)Nc3cccc(Cl)c3)CC2)c1 [Compound 518]
IC50 [1, 3]: 3830 ± 780 nM

COCCCn1c(N)c(C(=O)NCCC(C)C)c2nc3ccccc3nc21 [Compound 1012]
IC50 [1, 3]: > 4000 nM
IC50 (Mtb PDH (Lpd+DlaT+AceE); [4]): > 5000 nM

Cc1ccc2cc(CNc3ccc(O)cc3)c(O)nc2c1 [Compound 805]
IC50 [1, 3]: 1640 ± 140 nM

Cc1cc(C)cc(NC(=O)C2CCN(S(=O)(=O)c3cn(C(C)C)cn3)CC2)c1 [Compound 514]
IC50 [1, 3]: 2670 ± 570 nM
